The target of the experiment is T1, LNK SH2 domain (Mus musculus, UniProt O09039).
T1 construct: DNA encoding the mouse LNK SH2 domain (residues 324–446) and an N-terminal NusA; NusA (N, cleaved yes); made in house; host or cells: E. coli (tuner (DE3), BL21(DE3) or C43)
The experiment in a line: SPR competition assay (immobilised IL6ST pY757 peptide). In kind it is binding. Particulars: for fold decrease in affinity: mutant vs WT JAK2 pY813 peptide. How it is done:
SH2 domains typically bind ligands with a specific preference for amino acids at the −2 to +5 positions, relative to phosphotyrosine. […] To determine the contribution of individual residues, we made a series of mutations within the JAK2 phosphopeptide, and measured their affinity for the LNK SH2 domain via a surface plasmon resonance (SPR) competition assay (Fig. 3). The LNK SH2 domain was incubated with increasing concentrations of mutant JAK2 pY813 peptides before being passed over a chip coated with an immobilised low affinity phosphopeptide derived from a site on the intracellular domain of the IL-6 receptor, IL6ST. […] The +2 residue was not mutated as the structure indicates its sidechain points towards solvent.
The LNK SH2 domain has been proposed to interact with a suite of phosphorylated sites on various signalling proteins[16]–[19],[32]. […] In addition, binding to the activation loops of JAK2 and IRK, and pY785 of JAK3 were also examined. […] Given that SH2 domains will bind to most phosphorylated sequences to some degree, in line with the literature on SH2 domains and their targets[33] we applied a threshold cut-off of 2000 nM, where an IC50 over this value indicates a physiologically irrelevant interaction.
SPR competition assays were performed on either a Biacore 4000 or 200 (GE Healthcare) in 10 mM HEPES (pH 7.4), 150 mM NaCl, 3.4 mM EDTA, 0.005% Tween 20 using a streptavidin coated chip and were regenerated in 50 mM NaOH, 1 M NaCl. A biotinylated peptide representing the IL6ST pY757 sequence was immobilised to the chip by passing over 1 μg/mL of peptide dissolved in 10 mM HEPES pH 7.4, 150 mM NaCl, 3.4 mM EDA, 0.005% Tween 20. 0.1–0.5 μM of WT LNK SH2 domain was pre-incubated with 2, 1, 0.5, 0.25, 0.125 or 0 mM phosphopeptides before being flowed over the chip for 240–720 seconds at 10–30 μL/min. Data was analysed using Prism, the response of LNK in the presence of the peptide was normalised to an LNK only control and then fitted as an IC50 curve via non-linear regression.

Where [1] appears, read: phosphopeptide competition assay, mean of at least two technical replicates from two, three or four independent experiments, read-out: IC50.

The record followed here is PMC8528861, “Structural and functional analysis of target recognition by the lymphocyte adaptor protein LNK” (Nature Communications, 2021).

A word on the IC50: it is the concentration at which inhibition is half-maximal.

Each structure is given as a SMILES string. Where two headings read alike, the source gives them in different places. Where a SMILES comes first, the peptide text is derived from it. [ ]: non-standard residue; d: D form. pY = N[C@@H](Cc1ccc(OP(=O)(O)O)cc1)C(=O)O A value given as a limit tells only on which side of the number the result lay.

T1 sequence (O09039 324-446): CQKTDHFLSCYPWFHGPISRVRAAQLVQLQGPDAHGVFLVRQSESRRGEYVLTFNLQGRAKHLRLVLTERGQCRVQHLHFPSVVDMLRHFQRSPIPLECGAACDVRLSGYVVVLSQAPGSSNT

For the compound `CC(C)C[C@H](NC(=O)[C@H](CC(N)=O)NC(=O)[C@@H](NC(=O)[C@H](Cc1ccc(OP(=O)(O)O)cc1)NC(=O)[C@H](CC(=O)O)NC(=O)[C@H](CCCNC(=N)N)NC(=O)[C@@H](N)CCC(=O)O)[C@@H](C)O)C(=O)N1CCC[C@H]1C(=O)N[C@@H](CO)C(=O)O` [c-FMS pY923] (H-ERD[pY]TNLPS-OH; N-terminus and C-terminus assumed), under setting [1], the IC50 was > 10 µM.

On to `CC(C)C[C@H](NC(=O)[C@H](CCC(=O)O)NC(=O)[C@H](Cc1ccc(OP(=O)(O)O)cc1)NC(=O)[C@H](CC(=O)O)NC(=O)[C@@H]1CCCN1C(=O)[C@@H](NC(=O)[C@@H](N)Cc1ccccc1)[C@@H](C)O)C(=O)N[C@@H](Cc1ccccc1)C(=O)N[C@H](C(=O)N[C@@H](CCC(=O)O)C(=O)N[C@@H](CC(N)=O)C(=O)N[C@@H](CC(=O)O)C(=O)O)[C@@H](C)O` [+3F] (H-FTPD[pY]ELFTEND-OH; N-terminus and C-terminus assumed), for which the “fold decrease in affinity” value is on record as ~ 25 fold.

With `CC[C@H](C)[C@H](NC(=O)[C@H](C)N)C(=O)N[C@@H](CCC(=O)O)C(=O)N[C@H](C(=O)N[C@@H](CC(=O)O)C(=O)N[C@@H](CCCCN)C(=O)N[C@@H](CCC(=O)O)C(=O)N[C@@H](Cc1ccc(OP(=O)(O)O)cc1)C(=O)N[C@@H](Cc1ccc(O)cc1)C(=O)N[C@@H](CCCCN)C(=O)N[C@H](C(=O)N[C@@H](CCCCN)C(=O)N[C@@H](CCC(=O)O)C(=O)N1CCC[C@H]1C(=O)NCC(=O)O)C(C)C)[C@@H](C)O` [JAK2 pY1007] (H-AIETDKE[pY]YKVKEPG-OH; N-terminus and C-terminus assumed), under setting [1], the IC50 was > 10 µM.

Regarding `C[C@@H](O)[C@H](NC(=O)[C@@H](N)CCC(=O)O)C(=O)N[C@@H](CC(=O)O)C(=O)N[C@@H](Cc1ccc(OP(=O)(O)O)cc1)C(=O)N[C@@H](Cc1ccc(OP(=O)(O)O)cc1)C(=O)N[C@@H](CCCNC(=N)N)C(=O)N[C@@H](CCCCN)C(=O)NCC(=O)NCC(=O)N[C@@H](CCCCN)C(=O)NCC(=O)O` [IRK pY1445/pY1446] (H-ETD[pY][pY]RKGGKG-OH; N-terminus and C-terminus assumed), the IC50 under setting [1] was > 10 µM.

For `CC(C)C[C@H](NC(=O)[C@@H]1CCCN1C(=O)[C@H](CC(C)C)NC(=O)[C@H](Cc1ccc(OP(=O)(O)O)cc1)NC(=O)[C@H](CO)NC(=O)[C@H](Cc1c[nH]cn1)NC(=O)[C@H](CC(N)=O)NC(=O)[C@H](C)N)C(=O)N[C@@H](CO)C(=O)N[C@@H](Cc1ccc(O)cc1)C(=O)N[C@@H](Cc1c[nH]c2ccccc12)C(=O)N[C@@H](CCC(N)=O)C(=O)O` [MPL pY626] (H-ANHS[pY]LPLSYWQ-OH), the IC50 came to 4.89 µM.

Consider `CC(C)C[C@H](NC(=O)[C@H](CCCNC(=N)N)NC(=O)[C@H](Cc1ccc(OP(=O)(O)O)cc1)NC(=O)[C@H](CC(=O)O)NC(=O)[C@@H]1CCCN1C(=O)[C@@H](NC(=O)[C@@H](N)Cc1ccccc1)[C@@H](C)O)C(=O)N[C@@H](CC(C)C)C(=O)N[C@H](C(=O)N[C@@H](CCC(=O)O)C(=O)N[C@@H](CC(N)=O)C(=O)N[C@@H](CC(=O)O)C(=O)O)[C@@H](C)O` [+1R] (H-FTPD[pY]RLLTEND-OH), for which the “fold decrease in affinity” value is > 80 fold.

Turning to `CC[C@H](C)[C@H](NC(=O)[C@H](Cc1ccc(O)cc1)NC(=O)[C@@H](NC(=O)[C@H](Cc1ccc(OP(=O)(O)O)cc1)NC(=O)[C@H](CC(N)=O)NC(=O)[C@H](CC(N)=O)NC(=O)CN)C(C)C)C(=O)N[C@@H](CC(=O)O)C(=O)N1CCC[C@H]1C(=O)O` [c-KIT pY568] (H-GNN[pY]VYIDP-OH), the IC50 under setting [1] was determined as 1.93 µM.

With `CSCC[C@H](NC(=O)[C@H](CC(=O)O)NC(=O)[C@H](CCC(N)=O)NC(=O)[C@H](C)N)C(=O)N[C@@H](Cc1ccc(OP(=O)(O)O)cc1)C(=O)N[C@@H](CCCNC(=N)N)C(=O)N[C@@H](CCCNC(=N)N)C(=O)N[C@@H](CC(C)C)C(=O)N[C@@H](CCC(N)=O)C(=O)N1CCC[C@H]1C(=O)N[C@@H](CO)C(=O)N[C@@H](CS)C(=O)O` [MPL pY591] (H-AQDM[pY]RRLQPSC-OH; N-terminus and C-terminus assumed), the IC50 under setting [1] is > 10 µM.

For the compound `CC(C)C[C@H](NC(=O)[C@H](C)NC(=O)[C@H](C)NC(=O)[C@@H](NC(=O)[C@H](CC(=O)O)NC(=O)[C@H](CCCNC(=N)N)NC(=O)[C@H](CC(C)C)NC(=O)[C@H](Cc1ccc(OP(=O)(O)O)cc1)NC(=O)[C@H](CCC(N)=O)NC(=O)CNC(=O)[C@H](CC(C)C)NC(=O)[C@@H](N)C(C)C)[C@@H](C)O)C(=O)O` [MPL pY552] (H-VLGQ[pY]LRDTAAL-OH; N-terminus and C-terminus assumed), the IC50 was > 10 µM.

As to `NC(=O)C[C@H](NC(=O)[C@H](CCC(=O)O)NC(=O)[C@H](Cc1ccc(O)cc1)NC(=O)[C@@H]1CCCN1C(=O)[C@H](CC(N)=O)NC(=O)[C@H](CO)NC(=O)[C@H](Cc1ccc(OP(=O)(O)O)cc1)NC(=O)[C@@H]1CCCN1C(=O)CNC(=O)[C@H](CC(=O)O)NC(=O)[C@@H](N)CO)C(=O)N[C@@H](CO)C(=O)O` [EPOR pY485] (H-SDGP[pY]SNPYENS-OH; N-terminus and C-terminus assumed), the IC50 under setting [1] was > 10 µM.

Consider `CC(C)C[C@H](NC(=O)[C@@H]1CCCN1C(=O)[C@@H](N)CC(C)C)C(=O)N[C@@H](CO)C(=O)N[C@@H](Cc1ccc(OP(=O)(O)O)cc1)C(=O)N[C@@H](Cc1c[nH]c2ccccc12)C(=O)N[C@@H](CCC(N)=O)C(=O)N[C@@H](CCC(N)=O)C(=O)N1CCC[C@H]1C(=O)O` [MPL pY631] (H-LPLS[pY]WQQP-OH; N-terminus and C-terminus assumed), for which the IC50 under setting [1] was > 10 µM.

As for `CSCC[C@H](NC(=O)[C@H](CCC(N)=O)NC(=O)[C@H](CC(C)C)NC(=O)[C@H](CCC(N)=O)NC(=O)[C@H](CO)NC(=O)[C@H](CCC(=O)O)NC(=O)[C@H](Cc1ccc(OP(=O)(O)O)cc1)NC(=O)[C@H](CCCNC(=N)N)NC(=O)[C@H](Cc1ccccc1)NC(=O)[C@H](CCC(N)=O)NC(=O)[C@H](CCCCN)NC(=O)[C@H](CCCCN)NC(=O)[C@@H](N)Cc1ccc(O)cc1)C(=O)O` [FLT3 pY572] (H-YKKQFR[pY]ESQLQM-OH; N-terminus and C-terminus assumed), the IC50 under setting [1] is > 10 µM.

As to `CC[C@H](C)[C@H](NC(=O)[C@H](C)N)C(=O)N[C@@H](CCC(=O)O)C(=O)N[C@H](C(=O)N[C@@H](CC(=O)O)C(=O)N[C@@H](CCCCN)C(=O)N[C@@H](CCC(=O)O)C(=O)N[C@@H](Cc1ccc(OP(=O)(O)O)cc1)C(=O)N[C@@H](Cc1ccc(OP(=O)(O)O)cc1)C(=O)N[C@@H](CCCCN)C(=O)N[C@H](C(=O)N[C@@H](CCCCN)C(=O)N[C@@H](CCC(=O)O)C(=O)N1CCC[C@H]1C(=O)NCC(=O)O)C(C)C)[C@@H](C)O` [JAK2 pY1007/pY1008] (H-AIETDKE[pY][pY]KVKEPG-OH; N-terminus and C-terminus assumed), the IC50 under setting [1] is > 10 µM.

`CC(C)C[C@H](NC(=O)[C@H](CS)NC(=O)CNC(=O)[C@H](CC(N)=O)NC(=O)[C@H](CCC(N)=O)NC(=O)[C@H](Cc1ccc(OP(=O)(O)O)cc1)NC(=O)[C@H](CC(C)C)NC(=O)[C@H](Cc1c[nH]c2ccccc12)NC(=O)[C@H](CC(C)C)NC(=O)[C@@H](N)CCC(N)=O)C(=O)N[C@@H](Cc1c[nH]c2ccccc12)C(=O)N[C@@H](Cc1c[nH]c2ccccc12)C(=O)O` [EPOR pY309] (H-QLWL[pY]QNGCLWW-OH; N-terminus and C-terminus assumed): the IC50 under setting [1] was > 10 µM.

In the case of `CC[C@H](C)[C@H](NC(=O)[C@H](Cc1ccc(OP(=O)(O)O)cc1)NC(=O)[C@H](CCC(=O)O)NC(=O)[C@H](Cc1c[nH]cn1)NC(=O)CN)C(=O)N[C@@H](Cc1ccc(O)cc1)C(=O)N[C@H](C(=O)N[C@@H](CC(=O)O)C(=O)N1CCC[C@H]1C(=O)O)C(C)C` [PDGFR pY572] (H-GHE[pY]IYVDP-OH), the IC50 under setting [1] worked out at 3.81 µM.
